Results published in the supplement of paper PMC4862054.

How the values were obtained:
Assay in all cases: normalised viability (% of control), CellTiter-Blue; higher = more viable cells (about 100 = DMSO control)
Conditions in all cases: incubation time: 72 h
SK-BR-3 = test system: SK-BR-3
Procedure, shortened: (§1)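 Each entry is normalised viability at a single listed concentration within a series. It comes from breast cancer cell lines incubated 72 h with compound in 384-well plates, then measured with CellTiter-Blue fluorescence at 560/590 nm. Every plate was normalised between vehicle (100) and a positive kill control (0).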

MDA-MB-453 = test system: MDA-MB-453
Procedure, shortened: as §1

BT-474 = test system: BT-474
Procedure, shortened: as §1

MFM-223 = test system: MFM-223
Procedure, shortened: as §1

CAL-120 = test system: CAL-120
Procedure, shortened: as §1

HDQ-P1 = test system: HDQ-P1
Procedure, shortened: as §1

MDA-MB-436 = test system: MDA-MB-436
Procedure, shortened: as §1

CAL-85-1 = test system: CAL-85-1
Procedure, shortened: as §1

HCC1937 = test system: HCC1937
Procedure, shortened: as §1

Row | SMILES | normalised viability (SK-BR-3; 1000 nM) [%] | normalised viability (MDA-MB-453; 3 nM) [%] | normalised viability (BT-474; 1000 nM) [%] | normalised viability (MFM-223; 1000 nM) [%] | normalised viability (CAL-120; 1000 nM) [%] | normalised viability (HDQ-P1; 3 nM) [%] | normalised viability (MDA-MB-436; 1000 nM) [%] | normalised viability (CAL-85-1; 3 nM) [%] | normalised viability (HCC1937; 1000 nM) [%] | normalised viability (SK-BR-3; 10 nM) [%] | normalised viability (SK-BR-3; 10000 nM) [%] | normalised viability (MDA-MB-453; 30 nM) [%] | normalised viability (MDA-MB-453; 100 nM) [%] | normalised viability (BT-474; 10000 nM) [%] | normalised viability (MFM-223; 10000 nM) [%] | normalised viability (CAL-120; 10000 nM) [%] | normalised viability (HDQ-P1; 30 nM) [%] | normalised viability (MDA-MB-436; 10000 nM) [%] | normalised viability (CAL-85-1; 30 nM) [%] | normalised viability (HCC1937; 10000 nM) [%] | also measured
1 | COc1ncc(-c2ccc3nccc(-c4ccnnc4)c3c2)cc1NS(=O)(=O)c1ccc(F)cc1F | 9.4 | 67.2 | 6.63 | 14.6 | 16.1 | 70.5 | 22.8 | 75.9 | 32.5 |  |  |  |  |  |  |  |  |  |  |  | normalised viability (SK-BR-3; 1 nM): 77.7%; normalised viability (SK-BR-3; 100 nM): 14.2%; normalised viability (MDA-MB-453; 0.3 nM): 103%; normalised viability (MDA-MB-453; 10 nM): 36.7%; normalised viability (BT-474; 1 nM): 110%; normalised viability (BT-474; 100 nM): 19.2%; normalised viability (MFM-223; 1 nM): 99.9%; normalised viability (MFM-223; 100 nM): 21.3%; normalised viability (CAL-120; 1 nM): 84.2%; normalised viability (CAL-120; 100 nM): 28.9%; normalised viability (HDQ-P1; 0.3 nM): 95.3%; normalised viability (HDQ-P1; 10 nM): 51.8%; normalised viability (MDA-MB-436; 1 nM): 105%; normalised viability (MDA-MB-436; 100 nM): 34.2%; normalised viability (CAL-85-1; 0.3 nM): 89.5%; normalised viability (CAL-85-1; 10 nM): 73.2%; normalised viability (HCC1937; 1 nM): 94%; normalised viability (HCC1937; 100 nM): 47.2%
2 | C[C@@]1(C(=O)Nc2ccc(F)nc2)CCCN1c1nc(Nc2cc(C3CC3)n[nH]2)c2cccn2n1 | 71 | 100 | 87.6 | 52.6 | 63 | 120 | 94.3 | 92 | 73.2 | 99.1 | 56.4 | 84 | 105 | 82 | 25.3 | 21.1 | 82 | 33.9 | 75 | 29.4 | normalised viability (BT-474; 10 nM): 109%; normalised viability (MFM-223; 10 nM): 88.5%; normalised viability (CAL-120; 10 nM): 94%; normalised viability (HDQ-P1; 100 nM): 73.5%; normalised viability (MDA-MB-436; 10 nM): 122%; normalised viability (CAL-85-1; 100 nM): 87.9%; normalised viability (HCC1937; 10 nM): 127%
3 | COc1c(C)cnc(Cn2cnc3c(Cl)nc(N)nc32)c1C [BIIB021] | 14.5 | 96.5 | 22.9 | 23 | 18.4 | 110 | 43.5 | 81 | 25.1 | 85.7 | 12.8 | 79.5 | 38.4 | 27.3 | 23.8 | 15.2 | 110 | 25.5 | 81.5 | 22.1 | normalised viability (BT-474; 10 nM): 104%; normalised viability (MFM-223; 10 nM): 81.9%; normalised viability (CAL-120; 10 nM): 84.1%; normalised viability (HDQ-P1; 100 nM): 77.8%; normalised viability (MDA-MB-436; 10 nM): 92.5%; normalised viability (CAL-85-1; 100 nM): 86.1%; normalised viability (HCC1937; 10 nM): 83.1%
4 | CC(C)C[C@H](NC(=O)[C@H](Cc1ccccc1)NC(=O)c1cnccn1)B(O)O [Bortezomib] | 15.6 | 112 | 22.4 | 15.3 | 3.21 | 87.9 | 9.29 | 92.1 | 3.46 |  |  |  |  |  |  |  |  |  |  |  | normalised viability (SK-BR-3; 1 nM): 90.2%; normalised viability (SK-BR-3; 100 nM): 17.5%; normalised viability (MDA-MB-453; 0.3 nM): 106%; normalised viability (MDA-MB-453; 10 nM): 20.9%; normalised viability (BT-474; 1 nM): 101%; normalised viability (BT-474; 100 nM): 36.6%; normalised viability (MFM-223; 1 nM): 104%; normalised viability (MFM-223; 100 nM): 16.9%; normalised viability (CAL-120; 1 nM): 95.8%; normalised viability (CAL-120; 100 nM): 4.31%; normalised viability (HDQ-P1; 0.3 nM): 79.4%; normalised viability (HDQ-P1; 10 nM): 10.2%; normalised viability (MDA-MB-436; 1 nM): 101%; normalised viability (MDA-MB-436; 100 nM): 12.2%; normalised viability (CAL-85-1; 0.3 nM): 104%; normalised viability (CAL-85-1; 10 nM): 36.5%; normalised viability (HCC1937; 1 nM): 83.4%; normalised viability (HCC1937; 100 nM): 8.79%
5 | CS(=O)(=O)OCCCCOS(C)(=O)=O [Busulfan] |  |  |  |  |  |  |  |  |  |  | 104 | 95.9 |  | 114 | 95.7 | 105 | 109 | 95.2 | 106 | 83.1 | normalised viability (SK-BR-3; 100 nM): 95.1%; normalised viability (SK-BR-3; 100000 nM): 87.8%; normalised viability (MDA-MB-453; 300 nM): 101%; normalised viability (MDA-MB-453; 1000 nM): 104%; normalised viability (BT-474; 100 nM): 107%; normalised viability (BT-474; 100000 nM): 108%; normalised viability (MFM-223; 100 nM): 108%; normalised viability (MFM-223; 100000 nM): 99.1%; normalised viability (CAL-120; 100 nM): 110%; normalised viability (CAL-120; 100000 nM): 88.1%; normalised viability (HDQ-P1; 300 nM): 113%; normalised viability (HDQ-P1; 1000 nM): 94.4%; normalised viability (MDA-MB-436; 100 nM): 106%; normalised viability (MDA-MB-436; 100000 nM): 82.9%; normalised viability (CAL-85-1; 300 nM): 101%; normalised viability (CAL-85-1; 1000 nM): 108%; normalised viability (HCC1937; 100 nM): 86.4%; normalised viability (HCC1937; 100000 nM): 43.7%
6 | C#Cc1cccc(Nc2ncnc3cc(OC)c(OCCCCCCC(=O)NO)cc23)c1 [CUDC-101] | 16.8 | 99.7 | 28.2 | 20.4 | 38.3 | 98.9 | 53.9 | 89 | 45.4 | 75.5 | 2.82 | 67.3 | 65.3 | 3.84 | 2.11 | 9.22 | 93.3 | 12 | 75.5 | 14.6 | normalised viability (BT-474; 10 nM): 108%; normalised viability (MFM-223; 10 nM): 75.1%; normalised viability (CAL-120; 10 nM): 82.3%; normalised viability (HDQ-P1; 100 nM): 71.5%; normalised viability (MDA-MB-436; 10 nM): 94.7%; normalised viability (CAL-85-1; 100 nM): 91%; normalised viability (HCC1937; 10 nM): 71.7%
7 | COc1cccc2c1C(=O)c1c(O)c3c(c(O)c1C2=O)C[C@@](O)(C(C)=O)C[C@@H]3O[C@H]1C[C@H](N)[C@H](O)[C@H](C)O1 [Daunorubicin] | 6.42 | 114 | 17.3 | 26.7 | 9.51 | 94.5 | 17.3 | 86.8 | 20 |  |  |  |  |  |  |  |  |  |  |  | normalised viability (SK-BR-3; 1 nM): 103%; normalised viability (SK-BR-3; 100 nM): 40.1%; normalised viability (MDA-MB-453; 0.3 nM): 110%; normalised viability (MDA-MB-453; 10 nM): 97%; normalised viability (BT-474; 1 nM): 118%; normalised viability (BT-474; 100 nM): 80.3%; normalised viability (MFM-223; 1 nM): 108%; normalised viability (MFM-223; 100 nM): 104%; normalised viability (CAL-120; 1 nM): 80.3%; normalised viability (CAL-120; 100 nM): 35.9%; normalised viability (HDQ-P1; 0.3 nM): 133%; normalised viability (HDQ-P1; 10 nM): 97.3%; normalised viability (MDA-MB-436; 1 nM): 100%; normalised viability (MDA-MB-436; 100 nM): 50.4%; normalised viability (CAL-85-1; 0.3 nM): 87.3%; normalised viability (CAL-85-1; 10 nM): 89.1%; normalised viability (HCC1937; 1 nM): 105%; normalised viability (HCC1937; 100 nM): 34.2%
8 | CN1CCN(c2ccc3nc(-c4c(N)c5c(F)cccc5[nH]c4=O)[nH]c3c2)CC1 [Dovitinib] | 94.8 | 114 | 97.4 | 56.4 | 91.8 | 91 | 97 | 85.3 | 80.7 | 84.8 | 72.9 | 82.3 | 84 | 121 | 61 | 83.7 | 93.3 | 81.1 | 86.4 | 76.9 | normalised viability (BT-474; 10 nM): 111%; normalised viability (MFM-223; 10 nM): 80.5%; normalised viability (CAL-120; 10 nM): 88.3%; normalised viability (HDQ-P1; 100 nM): 88.3%; normalised viability (MDA-MB-436; 10 nM): 86.7%; normalised viability (CAL-85-1; 100 nM): 97.5%; normalised viability (HCC1937; 10 nM): 116%
9 | O=c1[nH]c(=O)n([C@H]2C[C@H](O)[C@@H](CO)O2)cc1F [Floxuridine] | 44.9 | 109 | 103 | 93.4 | 16.8 | 111 | 62.5 | 90.4 | 76 | 94.5 | 24 | 79 | 85.3 | 94.8 | 55.1 | 21.1 | 94.8 | 44.2 | 68.8 | 42.1 | normalised viability (BT-474; 10 nM): 108%; normalised viability (MFM-223; 10 nM): 97.1%; normalised viability (CAL-120; 10 nM): 94.4%; normalised viability (HDQ-P1; 100 nM): 80.8%; normalised viability (MDA-MB-436; 10 nM): 88.9%; normalised viability (CAL-85-1; 100 nM): 62.3%; normalised viability (HCC1937; 10 nM): 78.3%
